Source: patent US12606541B2, “PPARg modulators and methods of use” (Eisai R&D Management Co., Ltd., priority 2020, dated 2026)
Like-named read-outs stand apart in the source and are kept apart here.

Columns and labels:
His6-TEV-PPARγ-(234-505) = target: T1, His6-TEV-PPARγ-(234-505) (Homo sapiens, UniProt P37231); assay: TR-FRET Assay to Measure Co-R Peptide Recruitment to PPARγ; format: biochemical
T1 construct: The His6-TEV-PPARγ-(234-505) protein for assay was expressed and purified; TEV cleavage site (N); made in house
T1 sequence (P37231 234-505): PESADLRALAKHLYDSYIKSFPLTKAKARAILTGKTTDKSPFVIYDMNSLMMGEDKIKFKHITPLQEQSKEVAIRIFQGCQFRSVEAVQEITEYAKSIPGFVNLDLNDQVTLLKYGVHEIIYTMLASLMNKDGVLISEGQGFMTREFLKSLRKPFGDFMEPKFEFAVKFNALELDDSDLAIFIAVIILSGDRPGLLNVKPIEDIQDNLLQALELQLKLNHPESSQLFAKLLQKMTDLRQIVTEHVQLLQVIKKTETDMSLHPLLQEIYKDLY
In short: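 His-tagged PPARγ (or controls) was preincubated with compound for 20 minutes at room temperature, then 5 nM anti-His terbium antibody and 200 nM FITC-labeled SMRT-ID2 corepressor peptide (final) were added for a further hour. TR-FRET signal was normalized to percent response using 500 nM T0070907 and DMSO controls.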

UM-UC-9 engineered cells = assay: Cell proliferation / short-term viability assay, CellTiter-Glo 144 h; format: cell-based, human; settings: read-out: CTGlo 144 h UMUC9.5, G150
Protocol: Cell Seeding for Proliferation Assay
UM-UC-9 engineered cells were cultured in Dulbecco's Modified Eagle Medium (DMEM) supplemented with 10% FBS, 25 mM glucose (high glucose), 4.0 mM L-glutamine, 2.0 mM GlutaMAX™, 1.0 mM pyruvate, 1.0% non-essential amino acids (NEAA) in a 95% humidified incubator at 37° C. with 5% CO2. Cell banks of UM-UC-9 engineered assay-ready cells (ARCs) were prepared from a very active growth stage. Vials of ARCs containing approximately 5×10^6 cells per vial were stored in liquid nitrogen vapor phase cryostorage until use.
For making assay plates, ARCs were recovered from cryostorage, strained in a […] cell strainer, verified for cell viability >90% and counted using a cell counter (Cellometer Auto 1000, Nexelom). Each cell line was seeded into 384-well plates (50 μl/well) using DMEM medium at a density previously determined to be in log growth phase 7 days post-seeding (500 cells/well) using a bulk reagent dispenser (Multidrop™ Combi, Thermo Scientific) with a large-bore plastic-tip cassette pre-sanitized with 70% ethanol. One plate of cells was designated as the pretreatment time-zero (T0) control. Freshly seeded plates were allowed to sit lidded for 30 minutes within a biosafety cabinet for cells to settle distributed within the plate wells uniformly and then placed into an automated incubator (STX110, Liconic) at 37° C., 5% CO2, and 95% relative humidity.
Preparation of Test Compound in Assay-Ready Plate
Compounds were stored in a low-temperature sample archive as 10 mM dimethyl sulfoxide (DMSO) solutions at −20° C. under reduced humidity (−45° C. dew point) and protected from light. All samples in the automated archive are stored in 2D barcoded polypropylene tubes, tracked through a laboratory information management system (LIMS), and have been verified for identity and purity by NMR (Chemistry, H3 Biomedicine) and by LCMS (Analytical Chemistry, H3 Biomedicine) at the time of sample registration. Identity by mass matching and purity are again verified at the time of sample request fulfillment by redundant LCMS methods (acidic and basic separation protocols; Analytical Chemistry, H3 Biomedicine). Samples retrieved from low-temperature archive storage were solubilized by heated sonication (Bransonic® Ultrasonic Bath, Branson), transferred (Microlab Starlet, Hamilton) and serially-diluted (Viaflo Assist, Integra) by low-volume liquid handlers, and tracked in LIMS by automation log files to create a ID barcoded master dose-response plate (MDR) to serve as a standard source for all assay-ready plates (ARP) used within an experiment. ARPs prepared by acoustic transfer (ATS-100, EDC) of nL volumes from the MDR source were heat-sealed (PlateLoc, Agilent) and stored at −20° C. prior to use (<7 days from production). Tracking of liquid transfers via acoustic dispenser log files were used to update the LIMS system for all ARP plate maps.
Measurement of Pretreatment Control Cells and Sample Anti-Proliferative Effects on Treated Cells
On day 0 (pretreatment cells) or day 7 (treated cells), a cell proliferation assay was performed using an automated robotic assay platform (ACell, High-Res Biosolutions). Cell ARP's were removed from incubation, their plate lid discarded, and using a bulk reagent dispenser (Multidrop™ Combi, Thermo Scientific with a small-bore metal-tip cassette) 25 μL (1/2 volume) of Cell Titer-Glo® 2.0 Cell Viability Assay reagent (Promega) was added to wells of columns 1-23 (column 24 will be used as plate background or positive control). Cell ARP's were incubated at room temperature in an automation hotel position for a total of 1.0 minute while the next plate was delivered to the bulk reagent dispenser and then lid-free cell ARP's were returned to incubate at 37° C. for 2.5 hours. […]

[1] = Co-R peptide (SMRT-ID2) recruitment, top final concentration 20 μM, read-out: TR-FRET i-Ag, AC50
[2] = Co-R peptide recruitment to PPARγ, read-out: TR-FRET AC50

AC50 (His6-TEV-PPARγ-(234-505); [2])	Structure (SMILES)	IC50 (UM-UC-9 engineered cells; Homo sapiens, UM-UC-9, 144 h)	other results
–	COc1cc(-c2cc(C(=O)N3CCC(C(=O)NC4COCc5ccccc54)CC3)n[nH]2)c(Cl)cn1 (racemic) [Example 132, 1-(5-(5-chloro-2-methoxypyridin-4-yl)-1H-pyrazole-3-carbonyl)-N-(isochroman-4-yl)piperidine-4-carboxamide]	136 nM	AC50 (His6-TEV-PPARγ-(234-505); [1]): 24.6 nM
–	COc1cc(-c2cc(C(=O)N3CCC(C(=O)NC4CS(=O)(=O)N(C)c5ccccc54)CC3)n[nH]2)c(Cl)cn1 (racemic) [Example 231, 1-(5-(5-chloro-2-methoxypyridin-4-yl)-1H-pyrazole-3-carbonyl)-N-(1-methyl-2,2-dioxido-3,4-dihydro-1H-benzo[c][1,2]thiazin-4-yl)piperidine-4-carboxamide]	5440 nM	AC50 (His6-TEV-PPARγ-(234-505); [1]): 999 nM
–	COc1cc(-c2cc(C(=O)N3CC[C@H](C(=O)N[C@H]4CC[C@@](O)(C(F)(F)F)CC4)CC34CC4)n[nH]2)c(F)cn1 (single isomer, unassigned) [Example 169-B]	1.4 nM	AC50 (His6-TEV-PPARγ-(234-505); [1]): 2.3 nM
–	CO[C@]1(C(F)(F)F)CC[C@@H](NC(=O)[C@@H]2CCN(C(=O)c3cc(-c4cc(C)ncc4F)[nH]n3)C3(CC3)C2)CC1 (single isomer, unassigned) [Example 293-A]	874 nM	AC50 (His6-TEV-PPARγ-(234-505); [1]): 281 nM
–	COc1cc(-c2cc(C(=O)N3CCC(C(=O)NC4CC(N5CCC(F)(F)C5)C4(C)C)CC34CC4)n[nH]2)c(F)cn1 (single isomer, unassigned) [Example 355-B]	–	AC50 (His6-TEV-PPARγ-(234-505); [1]): 9.4 nM; IC50 (UM-UC-9 engineered cells): 3.3 nM
–	COc1cc(-c2cc(C(=O)N3CC[C@H](C(=O)NC4CCC(O)(C(F)(F)F)C(O)C4)CC34CC4)n[nH]2)c(F)cn1 (single isomer, unassigned) [Example 474-D]	–	AC50 (His6-TEV-PPARγ-(234-505); [1]): 331 nM; IC50 (UM-UC-9 engineered cells): 2020 nM
–	COc1cc(-c2cc(C(=O)N3CCC(C(=O)NC4CCC(C(F)(F)F)CC4)CC3)n[nH]2)c(Cl)cn1 (mixture of isomers) [Example 118, 1-[5-(5-chloro-2-methoxypyridin-4-yl)-1H-pyrazole-3-carbonyl]-N-[(1s,4s)-4-(trifluoromethyl)cyclohexyl]piperidine-4-carboxamide and 1-[5-(5-chloro-2-methoxypyridin-4-yl)-1H-pyrazole-3-carbonyl]-N-[(1r,4r)-4-(trifluoromethyl)cyclohexyl]piperidine-4-carboxamide]	–	IC50 (UM-UC-9 engineered cells): 121 nM
–	COc1cc(-c2cc(C(=O)N3CC[C@H](C(=O)NCc4ncc(C#N)cn4)CC34CC4)n[nH]2)c(F)cn1 [Example 456, (S)—N-((5-cyanopyrimidin-2-yl)methyl)-4-(5-(5-fluoro-2-methoxypyridin-4-yl)-1H-pyrazole-3-carbonyl)-4-azaspiro[2.5]octane-7-carboxamide]	312 nM	–
–	COc1cc(-c2cc(C(=O)N3CCC(C(=O)NC4CCC(C)CC4)CC3)n[nH]2)c(Cl)cn1 (single isomer, unassigned) [Example 101-A]	–	IC50 (UM-UC-9 engineered cells; listed as 101a): > 10000 nM
–	COc1cnc(CNC(=O)[C@H]2CCN(C(=O)c3cc(-c4cc(OC)ncc4F)[nH]n3)C3(CC3)C2)c(C(F)(F)F)c1 [Example 527, (S)-4-(5-(5-fluoro-2-methoxypyridin-4-yl)-1H-pyrazole-3-carbonyl)-N-((5-methoxy-3-(trifluoromethyl)pyridin-2-yl)methyl)-4-azaspiro[2.5]octane-7-carboxamide]	5 nM	–
–	COc1cc(-c2cc(C(=O)N3CCC(C(=O)NC(C)c4cccc(Cl)c4)CC3)n[nH]2)c(Cl)cn1 (racemic) [Example 115, (R)-1-[5-(5-chloro-2-methoxypyridin-4-yl)-1H-pyrazole-3-carbonyl]-N-[1-(3-chlorophenyl)ethyl]piperidine-4-carboxamide and (S)-1-[5-(5-chloro-2-methoxypyridin-4-yl)-1H-pyrazole-3-carbonyl]-N-[1-(3-chlorophenyl)ethyl]piperidine-4-carboxamide]	–	IC50 (UM-UC-9 engineered cells): 428 nM
–	COc1cc(-c2cc(C(=O)N3CC[C@H](C(=O)NCc4nc(C)cnc4Cl)CC34CC4)n[nH]2)c(F)cn1 [Example 451, (S)—N-((3-chloro-6-methylpyrazin-2-yl)methyl)-4-(5-(5-fluoro-2-methoxypyridin-4-yl)-1H-pyrazole-3-carbonyl)-4-azaspiro[2.5]octane-7-carboxamide]	9.6 nM	–
–	COc1cc(-c2cc(C(=O)N3[C@@H]4CC[C@H]3C[C@H](C(=O)NC3CCC(C#N)(C(F)(F)F)CC3)C4)n[nH]2)c(F)cn1 (stereo partly drawn) [Example 438, (1R,3s,5S)—N-(4-cyano-4-(trifluoromethyl)cyclohexyl)-8-(5-(5-fluoro-2-methoxypyridin-4-yl)-1H-pyrazole-3-carbonyl)-8-azabicyclo[3.2.1]octane-3-carboxamide]	1150 nM	–
> 1000 nM	CNc1cc(-c2cc(C(=O)N3CCC(C(=O)NC4CCC(C)CC4)CC3)n[nH]2)ccn1 (stereo not drawn) [1-{5-[2-(methylamino)pyridin-4-yl]-1H-pyrazole-3-carbonyl}-N-(4-methylcyclohexyl)piperidine-4-carboxamide]	–	–
> 1000 nM	CN(Cc1ccccc1)C(=O)C1CCN(C(=O)c2cc(-c3ccncc3)[nH]n2)CC1 [N-benzyl-N-methyl-1-[5-(pyridin-4-yl)-1H-pyrazole-3-carbonyl]piperidine-4-carboxamide]	–	–
> 1000 nM	CN(C)[C@H]1CCN(C(=O)C2CCN(C(=O)c3cc(-c4ccncc4)[nH]n3)CC2)C1 [(3S)—N,N-dimethyl-1-{1-[5-(pyridin-4-yl)-1H-pyrazole-3-carbonyl]piperidine-4-carbonyl}pyrrolidin-3-amine]	–	–
> 1000 nM	O=C(Nc1cccc(Cl)c1)C1CCN(C(=O)c2cc(-c3ccncc3)[nH]n2)CC1 [N-(3-chlorophenyl)-1-[5-(pyridin-4-yl)-1H-pyrazole-3-carbonyl]piperidine-4-carboxamide]	–	–
> 1000 nM	COc1cccc(CNC(=O)C2CCN(C(=O)c3cc(-c4ccncc4)[nH]n3)CC2)c1OC [N-[(2,3-dimethoxyphenyl)methyl]-1-[5-(pyridin-4-yl)-1H-pyrazole-3-carbonyl]piperidine-4-carboxamide]	–	–
> 1000 nM	Cc1ccc(NC(=O)C2CCN(C(=O)c3cc(-c4ccncc4)[nH]n3)CC2)nn1 [N-(6-methylpyridazin-3-yl)-1-[5-(pyridin-4-yl)-1H-pyrazole-3-carbonyl]piperidine-4-carboxamide]	–	–
> 1000 nM	Cc1cc(CNC(=O)C2CCN(C(=O)c3cc(-c4ccncc4)[nH]n3)CC2)ccn1 [N-[(2-methylpyridin-4-yl)methyl]-1-[5-(pyridin-4-yl)-1H-pyrazole-3-carbonyl]piperidine-4-carboxamide]	–	–
> 1000 nM	O=C(c1cc(-c2ccncc2)[nH]n1)N1CCC(C(=O)N2CCN(c3ccccc3)CC2)CC1 [1-phenyl-4-{1-[5-(pyridin-4-yl)-1H-pyrazole-3-carbonyl]piperidine-4-carbonyl}piperazine]	–	–
